From patent publication US20210220331A1, “INHIBITORS OF IRES-MEDIATED PROTEIN SYNTHESIS” (The Regents of the University of California, priority 2016, published 2021)

Legend:
[1] = system: cyclin D1 or c-MYC mRNA association with eIF-4E; assay: eIF-4E immunoprecipitation and qRT-PCR of bound RNA; type: cell-based; conditions: LN229 cells, 50 nM
Protocol: (§1) For immunopurification of eIF4E and bound RNA (21), cells were lysed in buffer containing 50 mM Tris-HCl (pH 7.4), 300 mM NaCl, 0.5% NP-40, 10 mM NaF, 1 mM sodium orthovanidate, 1 mM PMSF, 1.5% aprotinin and SUPERase-IN (ThermoFisher Scientific), 0.025 units/ml, using a Dounce homogenizer at 4° C. Extracts were cleared by centrifugation and immunoprecipitated with eIF4E or control IgG. Beads were washed and obtained RNA was subjected to quantitative RTPCR. For quantitative RT-PCR, extraction of RNA was performed using Trizol (ThermoFisher). Total RNA was then quantified and integrity assessed using an Agilent 2100 Bioanalyzer (Agilent Technology). Total RNA was reverse transcribed with random primers using the RETROscript Kit from ThermoFisher. SYBR Green quantitative PCR was performed in triplicate in 96-well optical plates on an ABI Prism 7000 Sequence Detection System (Life Technologies) according to the manufacturer's instructions. Primer sequences for CCND1, c-MYC and actin are available upon request. […]
(§2) (B) Schematic diagrams of the dicistronic constructs used in this study. […] Input and bound fractions were analyzed by immunoblotting using hnRNP A1 antibodies. […] Bound CCND1 or c-MYC RNAs were detected via RT-PCR. […]

[2] = system: LN229, LN18, LN428 and SF763 GBM lines; assay: Growth inhibition of GBM cell lines (XTT); type: cell-based
Protocol: Results are expressed as relative fold change in firefly (FF) luciferase activity and the mean and +S.D. are shown for three independent experiments. (B) Growth inhibition of GBM cell lines following 48 h culture in C11. Data represent mean±S.D. of three independent experiments. […] Control cell were treated with DMSO vehicle. Data are means±S.D., n=3. […] Percent apoptotic cells as determined via Annexin V staining are also shown below each graph. One of three experiments with similar results is shown.

human c-myc IRES = assay: Dicistronic IRES mRNA reporter assay (firefly luciferase), c-myc IRES; type: cell-based; conditions: for c-myc (decrease): fold decrease in PP242-induced c-MYC IRES activity: LN229, relative to values obtained with parent compound C11
Protocol: (§3) Western blot and quantitative RT-PCR analyses were performed as previously described (19). For Western blotting, cells or tissues were lysed in RIPA (lysis) buffer containing protease inhibitor cocktail and phosSTOP phosphatase inhibitor cocktail (Roche) and extracts resolved by SDSPAGE. Proteins were transferred to PVDF membranes and incubated with the indicated antibodies. For IRES reporter assays, the indicated mRNA reporters were cotransfected into cells with pSVβ-galactosidase to normalize for transfection efficiency as described previously (16). Cells were harvested 18 h following transfection and Renilla, firefly and β-galactosidase activities determined using the Dual-Glo Luciferase and β-galactosidase assay systems (Promega).
(B) Schematic diagrams of the dicistronic constructs used in this study. Constructs used are pRF, pRCD1F, which contains the human cyclin D1 IRES, pRmycF, containing the human c-myc IRES, pRp27F, containing the human p27Kip1 IRES and pRECMVF, containing the IRES from encephalomyocarditis virus. (C) Relative Renilla and firefly luciferase activities obtained from LN229 GBM cells transfected with the indicated constructs in the absence or presence of the inhibitor C11. The mean and +SD are shown for three independent experiments. […] (D) RNA-pull down assays utilizing biotinylated cyclin D1 or c-MYC IRES RNAs. Cytoplasmic extracts of LN229 cells treated with C11 (50 nM) as indicated were incubated with biotinylated cyclin D1 or c-MYC IRES RNAs and precipitated with streptavidin-Sepharose beads. Input and bound fractions were analyzed by immunoblotting using hnRNP A1 antibodies. […] RT-PCR measurements were performed in quadruplicate and the mean and +S.D. are shown. […] (F) Top panel, LN229 cells were treated with C11 as indicated and RT-PCR splicing analysis for Max exon 5 performed as described in the Experimental Methods section. Middle panel, LN229 cells treated with C11 (50 nM) as indicated, were lysed and immunoprecipitated using either eIF-4E or control IgG antibodies. Bound CCND1 or c-MYC RNAs were detected via RT-PCR. The mean and +S.D. are shown for three independent experiments. Bottom panel, cyclin D1 and c-MYC protein levels from the indicated GBM cell lines in the absence or presence of C11 at 24 h following treatment. C11 specifically blocks c-Myc IRES-mediated translation initiation by disrupting the ITAF hnRNP A1-IRES interaction.
Several dicistronic IRES mRNA reporter constructs were utilized, shown in FIG. 1B, in which the indicated IRES sequences were inserted within the intercistronic region. LN229 cells transiently transfected with these constructs were assayed for Renilla and firefly luciferase activities, which are readouts of cap-dependent and IRES-mediated translation initiation, respectively (16). […]

human p27Kip1 IRES = assay: Dicistronic IRES mRNA reporter assay, p27Kip1 IRES; type: cell-based; conditions: LN229 cells
Protocol: as §3, §2
Several dicistronic IRES mRNA reporter constructs were utilized, shown in FIG. 1B, in which the indicated IRES sequences were inserted within the intercistronic region. LN229 cells transiently transfected with these constructs were assayed for Renilla and firefly luciferase activities, which are readouts of cap-dependent and IRES-mediated translation initiation, respectively (16).

[3] = target: T1, hnRNP A1 binding to cyclin D1 or c-MYC IRES RNAs (Homo sapiens, UniProt P09651); assay: RNA-pull down assay with biotinylated cyclin D1 or c-MYC IRES RNAs; type: cell-based
T1 construct: endogenous in cells; host or cells: LN229 glioblastoma cells; 293T cells
T1 sequence (P09651 whole entry): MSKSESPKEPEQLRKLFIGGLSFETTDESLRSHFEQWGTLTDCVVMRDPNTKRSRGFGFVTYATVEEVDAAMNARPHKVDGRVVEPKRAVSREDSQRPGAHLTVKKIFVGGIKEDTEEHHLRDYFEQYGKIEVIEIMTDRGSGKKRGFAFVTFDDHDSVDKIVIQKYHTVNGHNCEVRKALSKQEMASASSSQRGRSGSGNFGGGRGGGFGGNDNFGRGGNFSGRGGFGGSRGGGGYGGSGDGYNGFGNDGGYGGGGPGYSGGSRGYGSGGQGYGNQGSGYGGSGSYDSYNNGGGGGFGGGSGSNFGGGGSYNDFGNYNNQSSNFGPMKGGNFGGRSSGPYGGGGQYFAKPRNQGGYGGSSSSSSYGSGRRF
Protocol: as §1, §2

actin mRNA = assay: Polysome analysis of xenografted LN229 tumors, actin mRNA; conditions: monotherapy
Protocol: Cells were lysed in buffer containing 100 μg/ml cycloheximide at 4° C. Following removal of mitochondria and nuclei, supernatants were layered onto 15-50% sucrose gradients and centrifuged at 38,000 rpm for 2 h at 4° C. in an SW40 rotor (Beckman Instruments). Gradients were fractionated into 11 1-ml fractions using a density gradient fractionator (Brandel Instruments). The profiles of the gradients were monitored at 260 nm, and RNAs from individual fractions were pooled into a nonribosomal/monosomal pool and a polysomal pool. These RNAs (100 ng) were used in real time quantitative RT-PCR analysis for the indicated transcripts.
Tumor extracts were subjected to sucrose density gradient centrifugation, fractionated and pooled into nonribosomal, monosomal fraction (N, white bars) and a polysomal fraction (P, black bars). Purified RNAs were used in real-time qRT-PCR analysis to determine the distributions of cyclin D1, c-MYC and actin mRNAs across the gradients. […] Means and +S.D. values are shown for quadruplicate RT-PCR measurements. *, P<0.05.
Polysomes were separated via sucrose density gradient sedimentation and fractionated into heavy polysomal and nonribosomal/monosomal fractions.

SMILES | cyclin D1 or c-MYC mRNA association with eIF-4E [1] | CI (combination index) at ED50 ratio of 1:100 ([2]; C11 at 10 and 100 nM with PP242, 48 h, LN229, LN18, LN428 and SF763) | inhibition of cell growth ([2]; inhibitor alone, concentrations up to 10 μM, 48 h, several GBM lines) | c-myc (decrease): fold decrease in PP242-induced c-MYC IRES activity (human c-myc IRES) [fold] | mTOR inhibitor-induced c-MYC IRES activity (human c-myc IRES; LN229 cells, cotreatment with rapamycin or PP242) | c-MYC IRES activity (human c-myc IRES; LN229 cells, inhibitor alone) | IRES-mediated initiation from p27Kip1 IRES (human p27Kip1 IRES) | hnRNP A1 binding to cyclin D1 or c-MYC IRES RNAs ([3]; extracts of LN229 cells treated with 50 nM) | actin mRNA polysomal distribution / translational efficiency (actin mRNA) | ability to block cyclin D1 or c-MYC IRES-hnRNP A1 interactions relative to C11 ([3]; 293T cell extracts)
COc1ccc(CN2C(=O)C(Cl)=C(Cl)C2=O)c(OC)c1 [Compound C11, reference compound] | did not affect | 0.5 | No significant inhibition of cell growth | 1.0 | significantly inhibited | significantly inhibited | did not affect | markedly reduced hnRNP A1 binding |  | 
COc1ccc(CN2C(=O)c3ccccc3C2=O)c(OC)c1 [IRES-J007, 2-((2,4-Dimethoxyphenyl)methyl)isoindoline-1,3-dione] |  |  |  | 6.51 ± 0.07 |  |  |  |  | unaffected | improved ability
